Data from US20250325529A1, “INHIBITORS OF FATTY ACID BINDING PROTEINS (FABPs), METHODS OF USE AND METHODS OF MAKING” (Celloram, inc., priority 2024, published 2025).
Each block holds one molecule with its values, some of them ahead of it.

Legend:
[1] = Single dose IV and PO PK study in C57BL/6 mice; type: in vivo; conditions: mouse, plasma; male C57BL/6 mice, single oral dose 10 mg/kg
Description: C57BL/6 male mice or Han Wistar rats were used, n=3 for each administration route and compound. Single dose of each compound was administered orally (PO, 10 mg/Kg) or by intravenous administration (IV, 1 mg/Kg). Following intravenous and oral administration, blood samples (ca 0.2 mL) were collected and compound amount was measured by HLPC. For IV group, blood samples were collected at 0.083, 0.25, 0.5, 1, 2, 4, 6, 8, and 24 hours post-dose. For PO group, blood samples were collected at 0.25, 0.5, 1, 2, 4, 6, 8, and 24 hours post-dose.

[2] = tested on: Salmonella typhimurium tester strain TA98; test: Ames test (Bacterial Reverse Mutation Test), TA98; type: cell-based
Description: (§1) PD152 (compound 2) was tested for genotoxic and cytotoxic side effects by Ames test. The Ames test is a Bacterial Reverse Mutation Test of mutagenicity that utilizes Salmonella typhimurium tester strains TA98, TA100, TA1535, TA1537 and Escherichia coli tester strain WP2 uvrA (pKM101), both in the presence and absence of S9.
(§2) The compound PD152 was tested at 10 concentrations (0.032-1000 μg/plate) in the presence of, or absence of, the hepatic enzyme S9.
(§3) The aniline FABP4/5 inhibitor compound, 2-((2-((2,4-dichloro-5-isopropoxyphenyl)amino)-2-oxoethyl)thio)-2-methylpropanoic acid (compound “B104” as disclosed in WO2023043803A1) also was tested for genotoxic and cytotoxic side effects by Ames test. […]

[3] = tested on: Salmonella typhimurium tester strain TA1537; test: Ames test (Bacterial Reverse Mutation Test), TA1537; type: cell-based
Description: as §1, §2, §3

[4] = tested on: Salmonella typhimurium tester strain TA100; test: Ames test (Bacterial Reverse Mutation Test), TA100; type: cell-based
Description: as §1, §2
(§4) The aniline FABP4/5 inhibitor compound, 2-((2-((2,4-dichloro-5-isopropoxyphenyl)amino)-2-oxoethyl)thio)-2-methylpropanoic acid (compound “B104” as disclosed in WO2023043803A1) also was tested for genotoxic and cytotoxic side effects by Ames test. B104 was tested using the Salmonella typhimurium tester stains TA98, TA100, TA1535, and TA1537, both in the presence and absence of the hepatic enzyme S9, at 5 concentrations (1.5-64 μg/plate).

[5] = tested on: Salmonella typhimurium tester strain TA1535; test: Ames test (Bacterial Reverse Mutation Test), TA1535; type: cell-based
Description: as §1, §2, §4

[6] = tested on: Salmonella typhimurium tester strains TA98, TA100, TA1535, TA1537 and Escherichia coli tester strain WP2 uvrA (pKM101); test: Ames test, overall conclusion for the tested strains; type: cell-based; conditions: presence and absence of S9
Description: as §1, §2, §4

PPARα = PPARα (Homo sapiens (Human), UniProt Q07869); test: Transcriptional activation assay in COS7 cells, PPARα; type: cell-based
Description: (§5) COS-7 were cultured in 6-well plates and co-transfected with either a luciferase reporter driven by 3 copies of a PPRE and expression vector for either PPARδ, PPARα or PPARγ together with a vector harboring cDNA for β-galactosidase, serving as a transfection control. To test whether FABP4 or FABP5 mediate activation of their cognate receptors PPARγ and PPARδ, respectively, cells were also co-transfected with a plasmid harboring sequence of either FABP4 or FABP5. 18 h post-transfection, cells were placed in a serum-free medium and treated with agonist/compound. 18 h. later, cells were lysed, luciferase activity was assayed (Promega, WI, USA) and corrected for transfection efficiency by the activity of β-galactosidase.
(§6) Transcriptional activation assays were carried out utilizing COS7 cells as described above.

FABP3 = FABP3 (Homo sapiens (Human), UniProt P05413); test: Fluorescence (ANS) competition binding assay, FABP3; conditions: ANS displacement
Description: (§7) This example illustrates a two-step fluorescence binding assay study used to determine the binding affinity of the various inhibitor compounds disclosed herein with the various FABPs: FABP3, FABP4, FABP5 and FABP7. Further secondary screening studies were carried out for compounds with high binding affinities toward the FABPs and based on their ability to activate the nuclear receptors PPARα, PPARγ, or PPARδ.
(§8) Binding assays for FABP3, FABP4, FABP5 and FABP7 were carried out by fluorescence titrations. His-tagged FABPs were bacterially expressed in E. coli, purified using Ni Sepharose beads, and the equilibrium dissociation constants (Kd) that characterize their interactions with different inhibitor compounds were measured by fluorescence competition assays. The method entails two steps as described in e.g., Lin, Q. et al., “Ligand selectivity of the peroxisome proliferator-activated receptor alpha,” Biochemistry 38, 185-190, doi:10.1021/bi9816094 [pii](1999). In the first step, Kd for the association of the protein with the fluorescent fatty acid probe ANS was measured. Protein (2 μM) was titrated with ANS from a concentrated solution in DMSO. Ligand binding was monitored by following the increase in the fluorescence of the ligand upon binding to the protein, and Kd for the association of ANS with the each FABP was computed from titration curves as described in e.g., Norris, A. W. & Li, E., “Fluorometric titration of the CRABPs,” Methods Mol Biol 89, 123-139 (1998)). In the second step, Kds for binding of non-fluorescent ligands were measured by monitoring their ability to displace ANS in the binding pocket of the protein. Each FABP was precomplexed with ANS at 1:1 molar ratio and titrated with the different compounds whose binding was reflected by a decrease in probe fluorescence. Kds were extracted from the EC50 of the competition curve and the measured Kd for ANS.

FABP5 = FABP5 (Homo sapiens (Human), UniProt Q01469); test: Fluorescence (ANS) competition binding assay, FABP5; conditions: ANS displacement
Description: as §7, §8

PPARδ = PPARδ (Homo sapiens (Human), UniProt Q03181); test: Transcriptional activation assay in COS7 cells, PPARδ; type: cell-based; conditions: PPRE luciferase reporter, PD151 and PD152 at 10 μM
Description: as §5, §6

FABP7 = FABP7 (Homo sapiens (Human), UniProt O15540); test: Fluorescence (ANS) competition binding assay, FABP7; conditions: ANS displacement
Description: as §7, §8

PPARγ = PPARγ (Homo sapiens (Human), UniProt P37231); test: Transcriptional activation assay in COS7 cells, PPARγ; type: cell-based; conditions: PPRE luciferase reporter, PD151 and PD152 at 10 μM
Description: as §5, §6

FABP4 = FABP4 (Homo sapiens (Human), UniProt P15090); test: Fluorescence (ANS) competition binding assay, FABP4; conditions: ANS displacement
Description: as §7, §8

[7] = TA98, absence of S9, 1.5 μg/well
[8] = TA98, absence of S9, 10 μg/well
[9] = TA98, absence of S9, 25 μg/well
[10] = TA98, absence of S9, 64 μg/well
[11] = TA98, presence of S9, 1.5 μg/well
[12] = TA98, presence of S9, 4 μg/well
[13] = TA98, presence of S9, 10 μg/well
[14] = TA98, presence of S9, 25 μg/well
[15] = TA98, presence of S9, 64 μg/well
[16] = TA1537, absence of S9, 1.5 μg/well
[17] = TA1537, absence of S9, 4 μg/well
[18] = TA1537, absence of S9, 10 μg/well
[19] = TA1537, absence of S9, 25 μg/well
[20] = TA1537, absence of S9, 64 μg/well
[21] = TA1537, presence of S9, 1.5 μg/well
[22] = TA1537, presence of S9, 4 μg/well
[23] = TA1537, presence of S9, 10 μg/well
[24] = TA1537, presence of S9, 25 μg/well
[25] = TA1537, presence of S9, 64 μg/well
[26] = TA100, absence of S9, 1.5 μg/well
[27] = TA100, absence of S9, 4 μg/well
[28] = TA100, absence of S9, 10 μg/well
[29] = TA100, absence of S9, 25 μg/well
[30] = TA100, absence of S9, 64 μg/well
[31] = TA100, presence of S9, 1.5 μg/well
[32] = TA100, presence of S9, 4 μg/well
[33] = TA100, presence of S9, 10 μg/well
[34] = TA100, presence of S9, 25 μg/well
[35] = TA100, presence of S9, 64 μg/well
[36] = TA1535, absence of S9, 1.5 μg/well
[37] = TA1535, absence of S9, 4 μg/well
[38] = TA1535, absence of S9, 10 μg/well
[39] = TA1535, absence of S9, 25 μg/well
[40] = TA1535, absence of S9, 64 μg/well
[41] = TA1535, presence of S9, 1.5 μg/well
[42] = TA1535, presence of S9, 4 μg/well
[43] = TA1535, presence of S9, 10 μg/well
[44] = TA1535, presence of S9, 25 μg/well
[45] = TA1535, presence of S9, 64 μg/well

FABP5, sequence (Q01469 whole entry, species assumed): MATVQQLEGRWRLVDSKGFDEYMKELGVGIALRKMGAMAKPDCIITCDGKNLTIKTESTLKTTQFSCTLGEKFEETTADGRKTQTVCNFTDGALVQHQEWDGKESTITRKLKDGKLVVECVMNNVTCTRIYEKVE
FABP4, sequence (P15090 whole entry, species assumed): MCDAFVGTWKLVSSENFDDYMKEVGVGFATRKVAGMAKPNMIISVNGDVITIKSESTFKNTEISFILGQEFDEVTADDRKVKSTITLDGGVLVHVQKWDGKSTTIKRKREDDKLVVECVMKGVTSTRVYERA
FABP7, sequence (O15540 whole entry, species assumed): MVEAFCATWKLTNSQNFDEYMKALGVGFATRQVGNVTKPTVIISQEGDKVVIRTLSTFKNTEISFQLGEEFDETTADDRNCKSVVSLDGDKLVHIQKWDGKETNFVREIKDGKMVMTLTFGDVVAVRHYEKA
FABP3, sequence (P05413 whole entry, species assumed): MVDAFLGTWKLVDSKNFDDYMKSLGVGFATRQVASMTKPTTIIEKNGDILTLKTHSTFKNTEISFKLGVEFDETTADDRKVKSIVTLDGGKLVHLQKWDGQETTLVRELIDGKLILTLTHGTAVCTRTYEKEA
PPARα, sequence (Q07869 whole entry, species assumed): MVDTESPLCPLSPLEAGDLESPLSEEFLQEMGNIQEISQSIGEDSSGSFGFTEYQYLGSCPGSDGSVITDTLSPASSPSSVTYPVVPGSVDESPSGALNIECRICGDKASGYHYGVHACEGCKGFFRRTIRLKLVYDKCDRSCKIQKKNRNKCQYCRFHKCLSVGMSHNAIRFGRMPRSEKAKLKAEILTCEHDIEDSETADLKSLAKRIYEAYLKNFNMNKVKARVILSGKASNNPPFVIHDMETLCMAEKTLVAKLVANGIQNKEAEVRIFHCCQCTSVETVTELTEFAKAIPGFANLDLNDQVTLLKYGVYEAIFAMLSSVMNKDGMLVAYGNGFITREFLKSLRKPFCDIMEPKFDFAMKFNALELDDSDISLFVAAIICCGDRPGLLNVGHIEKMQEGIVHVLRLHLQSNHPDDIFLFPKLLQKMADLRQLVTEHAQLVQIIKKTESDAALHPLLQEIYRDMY
PPARγ, sequence (P37231 whole entry, species assumed): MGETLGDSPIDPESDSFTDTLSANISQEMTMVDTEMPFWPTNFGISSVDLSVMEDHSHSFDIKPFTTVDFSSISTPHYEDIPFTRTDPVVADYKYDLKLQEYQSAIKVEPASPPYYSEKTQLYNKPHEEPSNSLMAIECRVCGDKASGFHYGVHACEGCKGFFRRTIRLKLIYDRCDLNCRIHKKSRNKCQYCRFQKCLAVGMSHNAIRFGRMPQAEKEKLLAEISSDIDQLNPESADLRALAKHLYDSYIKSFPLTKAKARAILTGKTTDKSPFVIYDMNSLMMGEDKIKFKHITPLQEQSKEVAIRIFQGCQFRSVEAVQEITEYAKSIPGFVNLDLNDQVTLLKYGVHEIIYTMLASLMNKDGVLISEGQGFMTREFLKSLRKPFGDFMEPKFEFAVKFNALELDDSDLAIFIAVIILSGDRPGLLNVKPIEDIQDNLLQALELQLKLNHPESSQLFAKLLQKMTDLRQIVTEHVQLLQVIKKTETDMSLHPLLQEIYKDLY
PPARδ, sequence (Q03181 whole entry, species assumed): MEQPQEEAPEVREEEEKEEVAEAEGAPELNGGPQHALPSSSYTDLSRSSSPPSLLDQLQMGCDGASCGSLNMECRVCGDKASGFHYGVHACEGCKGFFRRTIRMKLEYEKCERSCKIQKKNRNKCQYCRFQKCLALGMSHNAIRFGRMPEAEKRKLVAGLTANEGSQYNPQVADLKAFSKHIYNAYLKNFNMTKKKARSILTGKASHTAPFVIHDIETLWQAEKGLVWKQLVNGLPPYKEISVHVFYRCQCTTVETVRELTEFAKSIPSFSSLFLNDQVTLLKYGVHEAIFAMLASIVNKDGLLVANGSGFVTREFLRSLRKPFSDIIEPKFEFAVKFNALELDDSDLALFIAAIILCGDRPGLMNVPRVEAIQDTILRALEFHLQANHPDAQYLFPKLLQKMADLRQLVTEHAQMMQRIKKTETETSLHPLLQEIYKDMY

SMILES: CC(C)Oc1cc(NC(=O)CSCC(=O)O)c(Cl)cc1Cl [Compound B4, 2-((2-((2,4-dichloro-5-isopropoxyphenyl)amino)-2-oxoethyl)thio)acetic acid, reference compound]
bioavailability [1]: 47%

SMILES: CC(C)Oc1cc(NC(=O)CSC(C)(C)C(=O)O)c(Cl)cc1Cl [Compound B104, 2-((2-((2,4-dichloro-5-isopropoxyphenyl)amino)-2-oxoethyl)thio)-2-methylpropanoic acid, reference compound]
Fold increase [2, 7]: 1.26
Mean number of revertants [2, 7]: 16
Fold increase ([2]; TA98, absence of S9, 4 μg/well): 0.84
Mean number of revertants ([2]; TA98, absence of S9, 4 μg/well): 10.67
Fold increase [2, 8]: 0.97
Mean number of revertants [2, 8]: 12.33
Fold increase [2, 9]: 0
Mean number of revertants [2, 9]: 0.33
Fold increase [2, 10]: 0
Mean number of revertants [2, 10]: 0.66
Fold increase [2, 11]: 1.2
Mean number of revertants [2, 11]: 20.67
Fold increase [2, 12]: 2.3
Mean number of revertants [2, 12]: 39
Fold increase [2, 13]: 2.88
Mean number of revertants [2, 13]: 49
Fold increase [2, 14]: 2.7
Mean number of revertants [2, 14]: 47.67
Fold increase [2, 15]: 1.5
Mean number of revertants [2, 15]: 26
Fold increase [3, 16]: 0.43
Mean number of revertants [3, 16]: 2.0
Fold increase [3, 17]: 0.32
Mean number of revertants [3, 17]: 1.5
Fold increase [3, 18]: 0.21
Mean number of revertants [3, 18]: 1.0
Fold increase [3, 19]: 0
Mean number of revertants [3, 19]: 0
Fold increase [3, 20]: 0
Mean number of revertants [3, 20]: 0
Fold increase [3, 21]: 1.71
Mean number of revertants [3, 21]: 4.0
Fold increase [3, 22]: 2.36
Mean number of revertants [3, 22]: 5.5
Fold increase [3, 23]: 1.29
Mean number of revertants [3, 23]: 3.0
Fold increase [3, 24]: 1.07
Mean number of revertants [3, 24]: 2.5
Fold increase [3, 25]: 2.14
Mean number of revertants [3, 25]: 5.0
Fold increase [4, 26]: 0.8
Mean number of revertants [4, 26]: 52
Fold increase [4, 27]: 1.05
Mean number of revertants [4, 27]: 68
Fold increase [4, 28]: 0.86
Mean number of revertants [4, 28]: 56
Fold increase [4, 29]: 0
Mean number of revertants [4, 29]: 0
Fold increase [4, 30]: 0
Mean number of revertants [4, 30]: 0.67
Fold increase [4, 31]: 3
Mean number of revertants [4, 31]: 387
Fold increase [4, 32]: 5.18
Mean number of revertants [4, 32]: 658
Fold increase [4, 33]: 6.68
Mean number of revertants [4, 33]: 849
Fold increase [4, 34]: 6.55
Mean number of revertants [4, 34]: 833
Fold increase [4, 35]: 4.44
Mean number of revertants [4, 35]: 564.5
Fold increase [5, 36]: 1.20
Mean number of revertants [5, 36]: 4
Fold increase [5, 37]: 2.20
Mean number of revertants [5, 37]: 7.33
Fold increase [5, 38]: 1.40
Mean number of revertants [5, 38]: 4.67
Fold increase [5, 39]: 0.20
Mean number of revertants [5, 39]: 0.67
Fold increase [5, 40]: 0
Mean number of revertants [5, 40]: 0
Fold increase [5, 41]: 0.89
Mean number of revertants [5, 41]: 5.67
Fold increase [5, 42]: 1
Mean number of revertants [5, 42]: 6.33
Fold increase [5, 43]: 1.06
Mean number of revertants [5, 43]: 6.67
Fold increase [5, 44]: 1.68
Mean number of revertants [5, 44]: 10.67
Fold increase [5, 45]: 1
Mean number of revertants [5, 45]: 6.33
Cytotoxicity to the tested strains [6]: some level of cytotoxicity
Mutagenicity in the Ames test [6]: positive mutagenic responses

SMILES: CC(C)Oc1ccc(Cl)c(NC(=O)CSCC(=O)O)n1 [PD152.2, 2-((2-((3-chloro-6-isopropoxypyridin-2-yl)amino)-2-oxoethyl)thio)acetic acid]
Activation of transcription by PPARα (PPARα; PPRE luciferase reporter, PD151 and PD152 at 10 μM): None of these tested compounds activated
Kd (FABP3): 0.125 µM
Kd (FABP5): 0.141 µM
Activation of transcription by PPARδ (PPARδ): None of these tested compounds activated
Kd (FABP7): 1 µM
Activation of transcription by PPARγ (PPARγ): None of these tested compounds activated
Kd (FABP4): 0.072 µM

SMILES: Cc1cccc(Nc2cc(Cl)nc(SCC(=O)O)n2)c1C [Wy-14643, reference compound]
Activation of transcription by PPARα (PPARα; known agonist, 5 μM): induced activation of their respective receptors

Other lines, results leading:

Kd (FABP3): 0.098 µM
Kd (FABP5): 0.08 µM
Kd (FABP7): 0.344 µM
Kd (FABP4): 0.096 µM
SMILES: CC(C)Oc1nc(NC(=O)CSC(C)(C)C(=O)O)c(Cl)cc1Cl [PD153, 2-((2-((3,5-dichloro-6-isopropoxypyridin-2-yl)amino)-2-oxoethyl)thio)-2-methylpropanoic acid]

Kd (FABP3): 0.117 µM
Kd (FABP5): 0.059 µM
Kd (FABP7): 0.108 µM
Kd (FABP4): 0.079 µM
SMILES: CC(C)Oc1nc(NC(=O)COCC(=O)O)c(Cl)cc1Cl [PD155, 2-(2-((3,5-dichloro-6-isopropoxypyridin-2-yl)amino)-2-oxoethoxy)acetic acid]
